The NIST ThermoML archive (doi:10.1021/je8001442)
Numbers after ± are expanded uncertainties.

Assay: excess molar enthalpy (molar enthalpy of mixing); xn = mol fraction of the nth substance listed
Settings: Fluid (supercritical or subcritical phases), Flow calorimetry

## CC(C)OC(C)C [diisopropyl ether] + O=C=O
298.15 K, 5000 kPa, x2 = 0.1255
  excess molar enthalpy: -0.279 ± 0.00598 kcal/mol
298.15 K, 5000 kPa, x2 = 0.2326
  excess molar enthalpy: -0.527 ± 0.0112 kcal/mol
298.15 K, 5000 kPa, x2 = 0.3249
  excess molar enthalpy: -0.734 ± 0.0155 kcal/mol
298.15 K, 5000 kPa, x2 = 0.4054
  excess molar enthalpy: -0.913 ± 0.0194 kcal/mol
298.15 K, 5000 kPa, x2 = 0.4762
  excess molar enthalpy: -1.07 ± 0.0229 kcal/mol
298.15 K, 5000 kPa, x2 = 0.5389
  excess molar enthalpy: -1.2 ± 0.0263 kcal/mol
298.15 K, 5000 kPa, x2 = 0.5949
  excess molar enthalpy: -1.33 ± 0.0287 kcal/mol
298.15 K, 5000 kPa, x2 = 0.6452
  excess molar enthalpy: -1.45 ± 0.0311 kcal/mol
298.15 K, 5000 kPa, x2 = 0.6906
  excess molar enthalpy: -1.55 ± 0.0335 kcal/mol
298.15 K, 5000 kPa, x2 = 0.7317
  excess molar enthalpy: -1.62 ± 0.0335 kcal/mol
298.15 K, 5000 kPa, x2 = 0.7692
  excess molar enthalpy: -1.71 ± 0.0359 kcal/mol
298.15 K, 5000 kPa, x2 = 0.8036
  excess molar enthalpy: -1.79 ± 0.0382 kcal/mol
298.15 K, 5000 kPa, x2 = 0.8351
  excess molar enthalpy: -1.85 ± 0.0382 kcal/mol
298.15 K, 5500 kPa, x2 = 0.1263
  excess molar enthalpy: -0.277 ± 0.00598 kcal/mol
298.15 K, 5500 kPa, x2 = 0.2338
  excess molar enthalpy: -0.496 ± 0.0105 kcal/mol
298.15 K, 5500 kPa, x2 = 0.3265
  excess molar enthalpy: -0.682 ± 0.0146 kcal/mol
298.15 K, 5500 kPa, x2 = 0.4071
  excess molar enthalpy: -0.861 ± 0.0184 kcal/mol
298.15 K, 5500 kPa, x2 = 0.478
  excess molar enthalpy: -0.991 ± 0.021 kcal/mol
298.15 K, 5500 kPa, x2 = 0.5407
  excess molar enthalpy: -1.13 ± 0.0239 kcal/mol
298.15 K, 5500 kPa, x2 = 0.5966
  excess molar enthalpy: -1.25 ± 0.0263 kcal/mol
298.15 K, 5500 kPa, x2 = 0.6468
  excess molar enthalpy: -1.34 ± 0.0287 kcal/mol
298.15 K, 5500 kPa, x2 = 0.6921
  excess molar enthalpy: -1.45 ± 0.0311 kcal/mol
298.15 K, 5500 kPa, x2 = 0.7331
  excess molar enthalpy: -1.52 ± 0.0335 kcal/mol
298.15 K, 5500 kPa, x2 = 0.7705
  excess molar enthalpy: -1.61 ± 0.0335 kcal/mol
298.15 K, 5500 kPa, x2 = 0.8047
  excess molar enthalpy: -1.67 ± 0.0359 kcal/mol
298.15 K, 5500 kPa, x2 = 0.8361
  excess molar enthalpy: -1.74 ± 0.0359 kcal/mol
298.15 K, 5500 kPa, x2 = 0.865
  excess molar enthalpy: -1.78 ± 0.0382 kcal/mol
298.15 K, 5500 kPa, x2 = 0.8918
  excess molar enthalpy: -1.82 ± 0.0382 kcal/mol
298.15 K, 5500 kPa, x2 = 0.9019
  excess molar enthalpy: -1.83 ± 0.0382 kcal/mol
298.15 K, 6000 kPa, x2 = 0.127
  excess molar enthalpy: -0.232 ± 0.00502 kcal/mol
298.15 K, 6000 kPa, x2 = 0.235
  excess molar enthalpy: -0.442 ± 0.00932 kcal/mol
298.15 K, 6000 kPa, x2 = 0.3279
  excess molar enthalpy: -0.621 ± 0.0131 kcal/mol
298.15 K, 6000 kPa, x2 = 0.4087
  excess molar enthalpy: -0.761 ± 0.0163 kcal/mol
298.15 K, 6000 kPa, x2 = 0.4796
  excess molar enthalpy: -0.89 ± 0.0189 kcal/mol
298.15 K, 6000 kPa, x2 = 0.5423
  excess molar enthalpy: -1.01 ± 0.0215 kcal/mol
298.15 K, 6000 kPa, x2 = 0.5982
  excess molar enthalpy: -1.09 ± 0.0232 kcal/mol
298.15 K, 6000 kPa, x2 = 0.6483
  excess molar enthalpy: -1.19 ± 0.0239 kcal/mol
298.15 K, 6000 kPa, x2 = 0.6934
  excess molar enthalpy: -1.27 ± 0.0263 kcal/mol
298.15 K, 6000 kPa, x2 = 0.7344
  excess molar enthalpy: -1.33 ± 0.0287 kcal/mol
298.15 K, 6000 kPa, x2 = 0.7716
  excess molar enthalpy: -1.4 ± 0.0287 kcal/mol
298.15 K, 6000 kPa, x2 = 0.8057
  excess molar enthalpy: -1.48 ± 0.0311 kcal/mol
298.15 K, 6000 kPa, x2 = 0.837
  excess molar enthalpy: -1.52 ± 0.0335 kcal/mol
298.15 K, 6000 kPa, x2 = 0.8658
  excess molar enthalpy: -1.59 ± 0.0335 kcal/mol
298.15 K, 6000 kPa, x2 = 0.8924
  excess molar enthalpy: -1.63 ± 0.0335 kcal/mol
298.15 K, 6000 kPa, x2 = 0.9171
  excess molar enthalpy: -1.65 ± 0.0359 kcal/mol
298.15 K, 6000 kPa, x2 = 0.931
  excess molar enthalpy: -1.63 ± 0.0335 kcal/mol
298.15 K, 6000 kPa, x2 = 0.94
  excess molar enthalpy: -1.67 ± 0.0359 kcal/mol
298.15 K, 6000 kPa, x2 = 0.9614
  excess molar enthalpy: -1.64 ± 0.0359 kcal/mol
298.15 K, 6000 kPa, x2 = 0.9813
  excess molar enthalpy: -1.48 ± 0.0311 kcal/mol
303.15 K, 5000 kPa, x2 = 0.1255
  excess molar enthalpy: -0.251 ± 0.0055 kcal/mol
303.15 K, 5000 kPa, x2 = 0.2326
  excess molar enthalpy: -0.526 ± 0.0112 kcal/mol
303.15 K, 5000 kPa, x2 = 0.3249
  excess molar enthalpy: -0.741 ± 0.0158 kcal/mol
303.15 K, 5000 kPa, x2 = 0.4054
  excess molar enthalpy: -0.922 ± 0.0196 kcal/mol
303.15 K, 5000 kPa, x2 = 0.4762
  excess molar enthalpy: -1.08 ± 0.0229 kcal/mol
303.15 K, 5000 kPa, x2 = 0.5389
  excess molar enthalpy: -1.22 ± 0.0263 kcal/mol
303.15 K, 5000 kPa, x2 = 0.5949
  excess molar enthalpy: -1.35 ± 0.0287 kcal/mol
303.15 K, 5000 kPa, x2 = 0.6452
  excess molar enthalpy: -1.46 ± 0.0311 kcal/mol
303.15 K, 5000 kPa, x2 = 0.6906
  excess molar enthalpy: -1.55 ± 0.0335 kcal/mol
303.15 K, 5000 kPa, x2 = 0.7317
  excess molar enthalpy: -1.64 ± 0.0359 kcal/mol
303.15 K, 5500 kPa, x2 = 0.1263
  excess molar enthalpy: -0.278 ± 0.00598 kcal/mol
303.15 K, 5500 kPa, x2 = 0.2338
  excess molar enthalpy: -0.505 ± 0.0108 kcal/mol
303.15 K, 5500 kPa, x2 = 0.3265
  excess molar enthalpy: -0.715 ± 0.0153 kcal/mol
303.15 K, 5500 kPa, x2 = 0.4071
  excess molar enthalpy: -0.881 ± 0.0186 kcal/mol
303.15 K, 5500 kPa, x2 = 0.478
  excess molar enthalpy: -1.03 ± 0.0217 kcal/mol
303.15 K, 5500 kPa, x2 = 0.5407
  excess molar enthalpy: -1.16 ± 0.0239 kcal/mol
303.15 K, 5500 kPa, x2 = 0.5966
  excess molar enthalpy: -1.28 ± 0.0263 kcal/mol
303.15 K, 5500 kPa, x2 = 0.6468
  excess molar enthalpy: -1.38 ± 0.0287 kcal/mol
303.15 K, 5500 kPa, x2 = 0.6921
  excess molar enthalpy: -1.48 ± 0.0311 kcal/mol
303.15 K, 5500 kPa, x2 = 0.7331
  excess molar enthalpy: -1.56 ± 0.0335 kcal/mol
303.15 K, 5500 kPa, x2 = 0.7705
  excess molar enthalpy: -1.64 ± 0.0335 kcal/mol
303.15 K, 5500 kPa, x2 = 0.8047
  excess molar enthalpy: -1.69 ± 0.0359 kcal/mol
303.15 K, 6000 kPa, x2 = 0.127
  excess molar enthalpy: -0.255 ± 0.0055 kcal/mol
303.15 K, 6000 kPa, x2 = 0.235
  excess molar enthalpy: -0.479 ± 0.0103 kcal/mol
303.15 K, 6000 kPa, x2 = 0.3279
  excess molar enthalpy: -0.675 ± 0.0143 kcal/mol
303.15 K, 6000 kPa, x2 = 0.4087
  excess molar enthalpy: -0.839 ± 0.0179 kcal/mol
303.15 K, 6000 kPa, x2 = 0.4796
  excess molar enthalpy: -0.973 ± 0.0208 kcal/mol
303.15 K, 6000 kPa, x2 = 0.5423
  excess molar enthalpy: -1.09 ± 0.0232 kcal/mol
303.15 K, 6000 kPa, x2 = 0.5982
  excess molar enthalpy: -1.21 ± 0.0263 kcal/mol
303.15 K, 6000 kPa, x2 = 0.6483
  excess molar enthalpy: -1.32 ± 0.0287 kcal/mol
303.15 K, 6000 kPa, x2 = 0.6934
  excess molar enthalpy: -1.4 ± 0.0287 kcal/mol
303.15 K, 6000 kPa, x2 = 0.7344
  excess molar enthalpy: -1.48 ± 0.0311 kcal/mol
303.15 K, 6000 kPa, x2 = 0.7716
  excess molar enthalpy: -1.54 ± 0.0335 kcal/mol
303.15 K, 6000 kPa, x2 = 0.8057
  excess molar enthalpy: -1.6 ± 0.0335 kcal/mol
